Test results reported in patent publication US20030083202A1, “Roots-inducing agent of plants and its treatment method” (priority 2001, published 2003).

Tested on: cut stems of chrysanthemums
Assay: Roots-inducing and fixation-stimulating actions in cut stems of chrysanthemums (leaf spray)
Format: in vivo
Design: Index for roots-induction, Total indexes: scale not given here
Settings: 50th day; for Index for roots-induction, cutting 1 / Index for roots-induction, cutting 2 / Index for roots-induction, cutting 3 / Index for roots-induction, cutting 4 / Index for roots-induction, cutting 5 / Index for roots-induction, cutting 6 / Index for roots-induction, cutting 7 / Index for roots-induction, cutting 8: 5 ppm water solution sprayed once onto leaves, 8 cuttings; for Index for roots-induction, Total indexes: sum of the indexes of 8 cuttings, 5 ppm spray, non-treatment 7
Description: Stems of chrysanthemums were cut out by 5 cm from the part at 5-10 cm from the top to prepare cuttings with 2 leaves. The water solution of the tested compound (5 ppm) was sprayed once in a misty manner through an mascot spray onto the surface of leaves so that the surface got wet uniformly for each 8 cuttings. The cuttings in the pots were grew in a cabinet where the temperature was controlled in the range of 15 (C at lowest at night to 30 (C at highest in the daytime. Water was supplied appropriately according to the extent of dryness of soil during the cultivation of plants.
On the 50th day after the tested compound was sprayed, roots-induction of each cutting was checked by diggings up, and its extent was shown as an index for each rank.

Row | SMILES | Index for roots-induction, cutting 1 | Index for roots-induction, cutting 2 | Index for roots-induction, cutting 3 | Index for roots-induction, cutting 4 | Index for roots-induction, cutting 5 | Index for roots-induction, cutting 6 | Index for roots-induction, cutting 7 | Index for roots-induction, cutting 8 | Index for roots-induction, Total indexes
1 | CCCCCOC(=O)Cc1c[nH]c2cccc(Cl)c12 [4-Cl-IAA pentyl] | 2 (The cuttings with 10-19 roots per a cutting) | 2 (The cuttings with 10-19 roots per a cutting) | 2 (The cuttings with 10-19 roots per a cutting) | 2 (The cuttings with 10-19 roots per a cutting) | 1 (The cuttings with 5-9 roots per a cutting) | 1 (The cuttings with 5-9 roots per a cutting) | 0 (The cuttings with less than 4 roots (including no roots)) | 0 (The cuttings with less than 4 roots (including no roots)) | 10
2 | C=CCOC(=O)Cc1c[nH]c2cccc(Cl)c12 [4-Cl-IAA Ally] | 3 (The cuttings with 20 or more roots per a cutting) | 3 (The cuttings with 20 or more roots per a cutting) | 2 (The cuttings with 10-19 roots per a cutting) | 2 (The cuttings with 10-19 roots per a cutting) | 2 (The cuttings with 10-19 roots per a cutting) | 1 (The cuttings with 5-9 roots per a cutting) | 1 (The cuttings with 5-9 roots per a cutting) | 0 (The cuttings with less than 4 roots (including no roots)) | 14
3 | CCCOC(=O)Cc1c[nH]c2cccc(Cl)c12 [4-Cl-IAA I-Pr] | 3 (The cuttings with 20 or more roots per a cutting) | 3 (The cuttings with 20 or more roots per a cutting) | 2 (The cuttings with 10-19 roots per a cutting) | 2 (The cuttings with 10-19 roots per a cutting) | 2 (The cuttings with 10-19 roots per a cutting) | 2 (The cuttings with 10-19 roots per a cutting) | 1 (The cuttings with 5-9 roots per a cutting) | 1 (The cuttings with 5-9 roots per a cutting) | 16
4 | CC(C)OC(=O)Cc1c[nH]c2cccc(Cl)c12 [4-Cl-IAA 2-Pr] | 2 (The cuttings with 10-19 roots per a cutting) | 2 (The cuttings with 10-19 roots per a cutting) | 2 (The cuttings with 10-19 roots per a cutting) | 2 (The cuttings with 10-19 roots per a cutting) | 2 (The cuttings with 10-19 roots per a cutting) | 1 (The cuttings with 5-9 roots per a cutting) | 0 (The cuttings with less than 4 roots (including no roots)) | 0 (The cuttings with less than 4 roots (including no roots)) | 11
5 | COC(=O)Cc1c[nH]c2cccc(Cl)c12 [4-Cl-IAA Me] | 3 (The cuttings with 20 or more roots per a cutting) | 3 (The cuttings with 20 or more roots per a cutting) | 3 (The cuttings with 20 or more roots per a cutting) | 2 (The cuttings with 10-19 roots per a cutting) | 2 (The cuttings with 10-19 roots per a cutting) | 2 (The cuttings with 10-19 roots per a cutting) | 0 (The cuttings with less than 4 roots (including no roots)) | 0 (The cuttings with less than 4 roots (including no roots)) | 15
6 | CCCCOC(=O)Cc1c[nH]c2cccc(Cl)c12 [4-Cl-IAA 1-Bu] | 2 (The cuttings with 10-19 roots per a cutting) | 2 (The cuttings with 10-19 roots per a cutting) | 2 (The cuttings with 10-19 roots per a cutting) | 2 (The cuttings with 10-19 roots per a cutting) | 1 (The cuttings with 5-9 roots per a cutting) | 1 (The cuttings with 5-9 roots per a cutting) | 0 (The cuttings with less than 4 roots (including no roots)) | 0 (The cuttings with less than 4 roots (including no roots)) | 10
7 | CCC(C)OC(=O)Cc1c[nH]c2cccc(Cl)c12 (racemic) [4-Cl-IAA 2-Bu] | 2 (The cuttings with 10-19 roots per a cutting) | 2 (The cuttings with 10-19 roots per a cutting) | 2 (The cuttings with 10-19 roots per a cutting) | 2 (The cuttings with 10-19 roots per a cutting) | 1 (The cuttings with 5-9 roots per a cutting) | 1 (The cuttings with 5-9 roots per a cutting) | 0 (The cuttings with less than 4 roots (including no roots)) | 0 (The cuttings with less than 4 roots (including no roots)) | 10
8 | CCOC(=O)Cc1c[nH]c2cccc(Cl)c12 [4-Cl-IAA Et] | 3 (The cuttings with 20 or more roots per a cutting) | 3 (The cuttings with 20 or more roots per a cutting) | 3 (The cuttings with 20 or more roots per a cutting) | 3 (The cuttings with 20 or more roots per a cutting) | 3 (The cuttings with 20 or more roots per a cutting) | 2 (The cuttings with 10-19 roots per a cutting) | 1 (The cuttings with 5-9 roots per a cutting) | 0 (The cuttings with less than 4 roots (including no roots)) | 18
9 | CC(C)COC(=O)Cc1c[nH]c2cccc(Cl)c12 [4-Cl-IAA isoBu] | 2 (The cuttings with 10-19 roots per a cutting) | 2 (The cuttings with 10-19 roots per a cutting) | 2 (The cuttings with 10-19 roots per a cutting) | 1 (The cuttings with 5-9 roots per a cutting) | 1 (The cuttings with 5-9 roots per a cutting) | 0 (The cuttings with less than 4 roots (including no roots)) | 0 (The cuttings with less than 4 roots (including no roots)) | 0 (The cuttings with less than 4 roots (including no roots)) | 8
